Measured values published in ChEMBL document CHEMBL3045219, “Molecular modeling studies, synthesis and biological evaluation of derivatives of N-phenylbenzamide as Plasmodium falciparum dihydroorotate dehydrogenase (PfDHODH) inhibitors” (Med Chem Res, 2011).

Each compound was assayed against T1, Dihydroorotate dehydrogenase (Plasmodium falciparum, UniProt Q54A96) (assay: Inhibition of Plasmodium falciparum HIs6-tagged DHODH expressed in Escherichia coli DH5alpha using L-dihydroorotate as substrate by DCIP-based spectrophotometric analysis).
T1 sequence (Q54A96 whole entry): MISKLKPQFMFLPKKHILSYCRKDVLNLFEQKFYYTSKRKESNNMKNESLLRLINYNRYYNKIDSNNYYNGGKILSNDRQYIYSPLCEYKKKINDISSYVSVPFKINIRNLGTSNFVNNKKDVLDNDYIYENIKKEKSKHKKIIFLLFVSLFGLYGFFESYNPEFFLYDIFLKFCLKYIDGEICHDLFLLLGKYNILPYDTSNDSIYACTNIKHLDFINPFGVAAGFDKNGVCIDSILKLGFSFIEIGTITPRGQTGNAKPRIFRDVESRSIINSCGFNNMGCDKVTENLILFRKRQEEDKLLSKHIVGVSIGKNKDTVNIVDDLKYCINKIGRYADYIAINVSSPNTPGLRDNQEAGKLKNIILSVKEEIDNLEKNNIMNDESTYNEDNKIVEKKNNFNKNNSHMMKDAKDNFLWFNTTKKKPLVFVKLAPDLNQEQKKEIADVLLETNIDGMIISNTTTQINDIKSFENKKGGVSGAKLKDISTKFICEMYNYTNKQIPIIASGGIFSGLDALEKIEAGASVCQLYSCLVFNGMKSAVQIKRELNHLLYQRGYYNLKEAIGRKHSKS
O=C(Nc1ccccc1C(F)(F)F)Nc1cccc2ccccc12 showed an IC50 of 0.2 µM. For Cc1ccc(NC(=O)/C(C#N)=C(\O)C2CC2)cc1, the IC50 was 871 µM. Work on N#C/C(C(=O)Nc1ccc(C#N)cc1)=C(/O)C1CC1 yielded an IC50 of 708 µM. In the case of N#C/C(C(=O)Nc1ccc(C(F)(F)F)cc1)=C(/O)C1CC1, the IC50 is reported as 1070 µM. Compound Cc1c(C(=O)Nc2cc(Cl)cc(Cl)c2)cccc1[N+](=O)[O-] has an IC50 of 0.151 µM. Compound O=C(Nc1ccc(Cl)cc1Cl)c1ccc2ccccc2c1 has an IC50 of 0.1 µM. In the case of Cc1ccc(NC(=O)c2ccc3ccccc3c2)c(Cl)c1, the IC50 is reported as 0.151 µM. For O=C(Nc1ccccc1F)c1ccc2ccccc2c1, the IC50 was 0.251 µM. Compound Cc1c(C(=O)Nc2cccc(Br)c2)cccc1[N+](=O)[O-] has an IC50 of 0.1 µM. Cc1c(C(=O)Nc2ccc(F)c(F)c2)cccc1[N+](=O)[O-] was tested, and the IC50 was 0.151 µM. Cc1c(C(=O)Nc2cccc3ccccc23)cccc1[N+](=O)[O-] showed an IC50 of 0.1 µM. Cc1c(C(=O)Nc2ccc(Cl)c(Cl)c2)cccc1[N+](=O)[O-] showed an IC50 of 0.251 µM. Cc1cccc(NC(=O)c2cccc([N+](=O)[O-])c2C)c1 showed an IC50 of 0.302 µM. COc1ccccc1NC(=O)Nc1cccc2ccccc12 gave an IC50 of 0.251 µM. O=C(Nc1ccc(Cl)cc1)Nc1cccc2cccnc12 gave an IC50 of 0.55 µM. In the case of N#C/C(C(=O)Nc1ccc([N+](=O)[O-])cc1)=C(/O)C1CC1, the IC50 is reported as 537 µM.

These compounds were tested on Plasmodium falciparum (assay: Antiplasmodial activity against Plasmodium falciparum assessed as inhibition of [3H]hypoxanthine incorporation).
Assay type: functional, organism-based
In the case of O=C(Nc1ccc(F)c(Cl)c1)c1ccccc1, the IC50 is reported as 5.7 µM. Compound Cc1ccc(NC(=O)c2ccccc2)cc1 has an IC50 of over 10 µM. Work on O=C(Nc1ccc([N+](=O)[O-])cc1)c1ccccc1 yielded an IC50 of over 10 µM. Compound O=C(Nc1ccccc1Cl)c1ccccc1 has an IC50 of over 10 µM. Compound O=C(Nc1cccc([N+](=O)[O-])c1)c1ccccc1 has an IC50 of over 10 µM. For O=C(Nc1cccc(Cl)c1)c1ccccc1, the IC50 was 8.7 µM. Compound O=C(Nc1ccccc1[N+](=O)[O-])c1ccccc1 has an IC50 of over 10 µM. With O=C(Nc1ccc(Cl)cc1)c1ccccc1 the IC50 was over 10 µM. O=C(Nc1cccc(Cl)c1Cl)c1ccccc1 showed an IC50 of over 10 µM. O=C(Nc1ccc(Cl)cc1Cl)c1ccccc1 showed an IC50 of over 10 µM. Cc1cccc(NC(=O)c2ccccc2)c1 was tested, and the IC50 was over 10 µM. With COc1ccc(NC(=O)c2ccccc2)cc1Cl the IC50 was over 10 µM. O=C(Nc1ccc(Br)cc1)c1ccccc1 was tested, and the IC50 was over 10 µM. C[C@H]1[C@H](OC(=O)CCC(=O)O)O[C@@H]2O[C@@]3(C)CC[C@H]4[C@H](C)CC[C@@H]1[C@@]24OO3 [ARTESUNATE] was tested, and the IC50 was 0.017 µM. For Cc1ccccc1NC(=O)c1ccccc1 [N-O-TOLYLBENZAMIDE], the IC50 was over 10 µM. For O=C(Nc1ccccc1)c1ccccc1 [N-PHENYLBENZAMIDE], the IC50 was over 10 µM.
